Results published in patent US20090111821A1, “AMINO 1,2,4-TRIAZOLE DERIVATIVES AS MODULATORS OF MGLUR5” (AstraZeneca AB, priority 2007, published 2009).

Tests used:
[1] = Determination of brain to plasma ratio in rat; assay type: in vivo; details: brain and plasma, female Sprague Dawley rats, read-out: Brain/Plasma Ratio of compound in Rat
Protocol: Brain to plasma ratios are estimated in female Sprague Dawley rats. The compound is dissolved in water or another appropriate vehicle. For determination of brain to plasma ratio the compound is administrated as a subcutaneous, or an intravenous bolus injection, or an intravenous infusion, or an oral administration. At a predetermined time point after the administration a blood sample is taken with cardiac puncture. The rat is terminated by cutting the heart open, and the brain is immediately retained. The blood samples are collected in heparinized tubes and centrifuged within 30 minutes, in order to separate the plasma from the blood cells. The plasma is transferred to 96-well plates and stored at −20° C. until analysis. The brains are divided in half, and each half is placed in a pre-tarred tube and stored at −20° C. until analysis. Prior to the analysis, the brain samples are thawed and 3 mL/g brain tissue of distilled water is added to the tubes. The brain samples are sonicated in an ice bath until the samples are homogenized. Both brain and plasma samples are precipitated with acetonitrile. After centrifugation, the supernatant is diluted with 0.2% formic acid. Analysis is performed on a short reversed-phase HPLC column with rapid gradient elution and MSMS detection using a triple quadrupole instrument with electrospray ionisation and Selected Reaction Monitoring (SRM) acquisition. Liquid-liquid extraction may be used as an alternative sample clean-up. The samples are extracted, by shaking, to an organic solvent after addition of a suitable buffer. An aliquot of the organic layer is transferred to a new vial and evaporated to dryness under a stream of nitrogen. After reconstitution of the residuals the samples are ready for injection onto the HPLC column.

[2] = molecular target: T1, human mGluR5d (Homo sapiens, UniProt P41594); experiment: FLIPR assay, mobilization of intracellular calcium in cells expressing human mGluR5d; assay type: cell-based; details: antagonism of agonist response, read-out: FLIPR hmGluR5d
T1 construct: expressed in transfected cells; The cells are kept under hygromycin B and Zeocin selection; The separate IP3 assay names GHEK cells stably expressing human mGluR5d
Excerpt: Functional Assessment of mGluR5 Antagonism in Cell Lines Expressing mGluR5D
The properties of the compounds of the invention can be analyzed using standard assays for pharmacological activity. Examples of glutamate receptor assays are well known in the art as described in for example Aramori et al., Neuron 8:757 (1992), Tanabe et al. Neuron 8:169 (1992), Miller et al., J. Neuroscience 15: 6103 (1995), Balazs, et al., J. Neurochemistry 69:151 (1997). The methodology described in these publications is incorporated herein by reference. Conveniently, the compounds of the invention can be studied by means of an assay (FLIPR) that measures the mobilization of intracellular calcium, [Ca^2+]i in cells expressing mGluR5 or another assay (IP3) that measures inositol phosphate turnover.
Cells expressing human mGluR5d as described in WO97/05252 cultured in a mixture of high glucose DMEM with Glutamax (31966-021)(500 mL), 10% dialyzed fetal bovine serum (Hyclone #SH30079.03) (56 mL), 200 μg/mL Hygromycin B (Invitrogen 45-0430, 50 mg/mL) (2.2 mL), 200 μg/mL Zeocin (Invitrogen #R250-01; 100 mg/mL) (1.1 mL) are seeded at a density of 100,000 cells per well on collagen coated clear bottom 96-well plates with black sides and cells were allowed to adhere over night before experiments. All assays are done in a buffer containing 146 mM NaCl, 5 mM KCl, 1 mM MgCl2, 1 mM CaCl2, 20 mM HEPES, 1 mg/mL glucose and 1 mg/mL BSA Fraction IV (pH 7.4). Cell cultures in the 96-well plates are loaded for 60 minutes in the above mentioned buffer containing 6 μM of the acetoxymethyl ester form of the fluorescent calcium indicator fluo-3 (Molecular Probes, Eugene, Oreg.) in 0.025% pluronic acid (a proprietary, non-ionic surfactant polyol—CAS Number 9003-11-6). Following the loading period the fluo-3 buffer is removed and replaced with fresh assay buffer. FLIPR experiments are done using a laser setting of 0.700 W and a 0.4 second CCD camera shutter speed with excitation and emission wavelengths of 488 nm and 562 nm, respectively. Each experiment is initiated with 160 μl of buffer present in each well of the cell plate. A 40 μl addition from the antagonist plate was followed by a 50 μL addition from the agonist plate. A 30 minutes, in dark at 25° C., interval separates the antagonist and agonist additions. The fluorescence signal is sampled 50 times at 1-second intervals followed by 3 samples at 5-second intervals immediately after each of the two additions. Responses are measured as the difference between the peak heights of the response to agonist, less the background fluorescence within the sample period. IC50 determinations are made using a […] least squares fitting program.

T1 sequence (P41594 21-942 isoform P41594-3 limits assumed): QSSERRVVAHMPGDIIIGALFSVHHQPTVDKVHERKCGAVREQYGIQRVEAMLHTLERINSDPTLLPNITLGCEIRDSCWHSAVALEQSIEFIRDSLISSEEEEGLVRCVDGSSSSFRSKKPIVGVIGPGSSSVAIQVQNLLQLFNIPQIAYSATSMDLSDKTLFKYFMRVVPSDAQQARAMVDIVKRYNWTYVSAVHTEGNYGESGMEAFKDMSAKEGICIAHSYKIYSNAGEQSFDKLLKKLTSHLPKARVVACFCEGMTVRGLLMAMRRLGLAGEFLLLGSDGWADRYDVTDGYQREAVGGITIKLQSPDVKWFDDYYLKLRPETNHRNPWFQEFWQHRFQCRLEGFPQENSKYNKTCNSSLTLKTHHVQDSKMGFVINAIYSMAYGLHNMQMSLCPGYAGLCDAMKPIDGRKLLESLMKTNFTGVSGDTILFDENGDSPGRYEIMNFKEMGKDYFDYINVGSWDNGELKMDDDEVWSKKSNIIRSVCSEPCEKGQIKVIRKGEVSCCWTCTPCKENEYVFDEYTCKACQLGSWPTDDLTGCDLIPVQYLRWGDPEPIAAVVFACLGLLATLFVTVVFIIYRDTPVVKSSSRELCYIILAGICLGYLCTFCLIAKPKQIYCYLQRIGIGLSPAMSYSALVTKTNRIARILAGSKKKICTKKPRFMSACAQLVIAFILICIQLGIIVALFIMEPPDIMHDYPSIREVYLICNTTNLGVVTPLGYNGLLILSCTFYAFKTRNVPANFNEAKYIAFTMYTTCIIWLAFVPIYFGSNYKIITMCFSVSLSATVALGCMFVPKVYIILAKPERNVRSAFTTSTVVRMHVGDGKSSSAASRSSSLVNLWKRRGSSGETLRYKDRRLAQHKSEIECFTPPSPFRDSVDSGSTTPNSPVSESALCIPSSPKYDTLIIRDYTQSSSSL

Compound	Kp [1]	IC50 [2] [nM]
CCN(Cc1cc(-c2cccc(C)c2)on1)c1nnc(-c2cn[nH]c(=O)c2)n1C [Example 4.6, 5-[5-(Ethyl{[5-(3-methylphenyl)isoxazol-3-yl]-methyl}amino)-4-methyl-4H-1,2,4-triazol-3-yl]pyridazin-3(2H)-one]	0.01	45
Cc1cccc(-c2cc([C@H](C)N(C)c3nnc(-c4cnn(C)c(=O)c4)n3C)no2)c1 [Example 14, 2-Methyl-5-[4-methyl-5-(methyl{(1S)-1-[5-(3-methylphenyl)isoxazol-3-yl]ethyl}amino)-4H-1,2,4-triazol-3-yl]pyridazin-3(2H)-one]	0.07	12
Cc1cccc(-c2cc([C@H](C)N(C)c3nnc(-c4cc[nH]c(=O)c4)n3C)no2)c1 [Example 4.12, (−)-4-[4-Methyl-5-(methyl-{(1S)-1-[5-(3-methylphenyl)-isoxazol-3-yl]ethyl}amino)-4H-1,2,4-triazol-3-yl]pyridin-2(1H)-one]	< 0.01	71
CC(c1cc(-c2cccc(Cl)c2)on1)N(c1nnc(-c2cn[nH]c(=O)c2)n1C)C1CC1 (single isomer, unassigned; (-)) [(−) 5.2]	< 0.01	111
CCN(Cc1cc(-c2cccc(C)c2)on1)c1nnc(-c2ccn(C)c(=O)c2)n1C [Example 4.8, 4-[5-(Ethyl{[5-(3-methylphenyl)isoxazol-3-yl]methyl}amino)-4-methyl-4H-1,2,4-triazol-3-yl]-1-methylpyridin-2(1H)-one]	0.22	112
Cc1cccc(-c2cc([C@H](C)N(C)c3nnc(-c4cn[nH]c(=O)c4)n3C)no2)c1 [Example 4.11, (−)-5-[4-Methyl-5-(methyl-{(1S)-1-[5-(3-methylphenyl)isoxazol-3-yl]ethyl}amino)-4H-1,2,4-triazol-3-yl]pyridazin-3(2H)-one]	< 0.01	43
CCN(Cc1cc(-c2cccc(Cl)c2)on1)c1nnc(-c2cn[nH]c(=O)c2)n1C [Example 4.3, 5-{5-[{[5-(3-Chlorophenyl)-isoxazol-3-yl]methyl}(ethyl)-amino]-4-methyl-4H-1,2,4-triazol-3-yl}pyridazin-3(2H)-one]	0.015	21
Cc1cccc(-c2cc([C@H](C)N(C)c3nnc(-c4ccn(C)c(=O)c4)n3C)no2)c1 [Example 8.3, 1-Methyl-4-[4-methyl-5-(methyl-{(1S)-1-[5-(3-methylphenyl)-isoxazol-3-yl]ethyl}amino)-4H-1,2,4-triazol-3-yl]pyridin-2(1H)-one]	< 0.01	117
CN(Cc1cc(-c2cccc(Cl)c2)on1)c1nnc(-c2ccnnc2)n1C [Example 8.1, N-{[5-(3-Chlorophenyl)isoxazol-3-yl]methyl}-N,4-dimethyl-5-pyridazin-4-yl-4H-1,2,4-triazol-3-amine]	0.03	10
CCn1c(-c2cc(=O)[nH]cn2)nnc1N(C)Cc1cc(-c2cccc(C)c2)on1 [Example 4.7, 6-[4-Ethyl-5-(methyl{[5-(3-methylphenyl)isoxazol-3-yl]methyl}amino)-4H-1,2,4-triazol-3-yl]pyrimidin-4(3H)-one]	< 0.015	53
CC(c1cc(-c2cccc(Cl)c2)on1)N(C)c1nnc(-c2ccn(C)c(=O)c2)n1C (single isomer, unassigned; (-)) [(−) 5.1]	< 0.01	30
CCN(Cc1noc(-c2cccc(Cl)c2)n1)c1nnc(-c2cn[nH]c(=O)c2)n1C [Example 8.4, 5-{5-[{[5-(3-Chlorophenyl)-1,2,4-oxadiazol-3-yl]methyl}(ethyl)amino]-4-methyl-4H-1,2,4-triazol-3-yl}pyridazin-3(2H)-one]	< 0.01	43
CCn1c(-c2cc(=O)[nH]cn2)nnc1N(C)Cc1cc(-c2cccc(Cl)c2)on1 [Example 4.4, 6-{5-[{[5-(3-chlorophenyl)-isoxazol-3-yl]methyl}(methyl)amino]-4-ethyl-4H-1,2,4-triazol-3-yl}pyrimidin-4(3H)-one]	< 0.01	13
CCN(Cc1cc(-c2cccc(Cl)c2)on1)c1nnc(-c2cc[nH]c(=O)c2)n1C [Example 4.2, 4-{5-[{[5-(3-Chlorophenyl)-isoxazol-3-yl]methyl}(ethyl)amino]-4-methyl-4H-1,2,4-triazol-3-yl}pyridin-2(1H)-one]	0.02	31
CCN(Cc1cc(-c2cccc(C)c2)on1)c1nnc(-c2cc[nH]c(=O)c2)n1C [Example 4.9, 4-[5-(Ethyl{[5-(3-methylphenyl)isoxazol-3-yl]methyl}amino)-4-methyl-4H-1,2,4-triazol-3-yl]pyridin-2(1H)-one]	0.035	53
CCN(Cc1noc(-c2cccc(C)c2)n1)c1nnc(-c2cn[nH]c(=O)c2)n1C [Example 8.5, 5-[5-(Ethyl{[5-(3-methylphenyl)-1,2,4-oxadiazol-3-yl]methyl}amino)-4-methyl-4H-1,2,4-triazol-3-yl]pyridazin-3(2H)-one]	< 0.01	52
CCN(Cc1noc(-c2cccc(C)c2)n1)c1nnc(-c2ccn(C)c(=O)c2)n1C [Example 8.6, 4-[5-(Ethyl{[5-(3-methylphenyl)-1,2,4-oxadiazol-3-yl]methyl}amino)-4-methyl-4H-1,2,4-triazol-3-yl]-1-methylpyridin-2(1H)-one]	< 0.01	75
CCN(Cc1cc(-c2cccc(Cl)c2)on1)c1nnc(-c2ccn(C)c(=O)c2)n1C [Example 4.10, 4-{5-[{[5-(3-Chlorophenyl)-isoxazol-3-yl]methyl}(ethyl)amino]-4-methyl-4H-1,2,4-triazol-3-yl}-1-methylpyridin-2(1H)-one]	< 0.01	65
CN(Cc1cc(-c2cccc(Cl)c2)on1)c1nnc(-c2cc(=O)[nH]cn2)n1C1CC1 [Example 4.5, 6-{5-[{[5-(3-chlorophenyl)isoxazol-3-yl]methyl}(methyl)amino]-4-cyclopropyl-4H-1,2,4-triazol-3-yl}pyrimidin-4(3H)-one]	< 0.01	77
CN(Cc1cc(-c2cccc(Cl)c2)on1)c1nnc(-c2cncnc2)n1C [Example 8.2, N-{[5-(3-Chlorophenyl)isoxazol-3-yl]methyl}-N,4-dimethyl-5-pyrimidin-5-yl-4H-1,2,4-triazol-3-amine]	0.16	20
Cn1c(-c2cn[nH]c(=O)c2)nnc1N(Cc1cc(-c2cccc(Cl)c2)on1)C1CC1 [Example 4.1, 5-{5-[{[5-(3-Chlorophenyl)isoxazol-3-yl]methyl}(cyclopropyl)amino]-4-methyl-4H-1,2,4-triazol-3-yl}pyridazin-3(2H)-one]	< 0.01	41
